Assays:
Format in all cases: in vivo
[1] = system: Setaria viridis (SETVI); assay: Herbicidal post-emergence action; details: 1280 g/ha; rated visually about 3 weeks after treatment vs untreated controls; 100% = plants have died, 0% = like control plants
Experimental: (§1) Seeds of mono- and dicotyledonous weed plants were placed in plastic pots in sandy loam soil (doubly sown with in each case one species of mono- or dicotyledonous weed plants per pot), covered with soil and cultivated in a greenhouse under controlled growth conditions. 2 to 3 weeks after sowing, the test plants were treated at the one-leaf stage. The compounds of the invention, formulated in the form of wettable powders (WP) or as emulsion concentrates (EC), were applied onto the green parts of the plants as aqueous suspension or emulsion with addition of 0.5% additive at a water application rate of 600 liters per hectare (converted). After the test plants had been kept in the greenhouse under optimum growth conditions for about 3 weeks, the activity of the preparations was rated visually in comparison to untreated controls. For example, 100% activity=the plants have died, 0% activity=like control plants. Tables B1 to B6 below show the effects of selected compounds of the general formula (I) according to Table 1 on various harmful plants and an application rate corresponding to 1280 g/ha, which were obtained by the experimental procedure mentioned above.

[2] = system: Poa annua (POAAN); assay: Herbicidal post-emergence action; details: 1280 g/ha; rated visually about 3 weeks after treatment vs untreated controls; 100% = plants have died, 0% = like control plants
Experimental: as §1

[3] = system: Amaranthus retroflexus (AMARE); assay: Herbicidal post-emergence action; details: 1280 g/ha; rated visually about 3 weeks after treatment vs untreated controls; 100% = plants have died, 0% = like control plants
Experimental: as §1

[4] = system: Echinochloa crus-galli (ECHCG); assay: Herbicidal post-emergence action; details: 1280 g/ha; rated visually about 3 weeks after treatment vs untreated controls; 100% = plants have died, 0% = like control plants
Experimental: as §1

[5] = system: Stellaria media (STEME); assay: Herbicidal post-emergence action; details: 1280 g/ha; rated visually about 3 weeks after treatment vs untreated controls; 100% = plants have died, 0% = like control plants
Experimental: as §1

[6] = system: Abutilon theophrasti (ABUTH); assay: Herbicidal post-emergence action; details: 1280 g/ha; rated visually about 3 weeks after treatment vs untreated controls; 100% = plants have died, 0% = like control plants
Experimental: as §1

[7] = system: Matricaria inodora (MATIN); assay: Herbicidal pre-emergence action; details: 1280 g/ha; scored visually after about 3 weeks vs untreated controls; 100% = plants have died, 0% = like control plants
Source text: (§2) Seeds of mono- and dicotyledonous weed plants were placed in plastic pots in sandy loam soil (doubly sown with in each case one species of mono- or dicotyledonous weed plants per pot) and covered with soil. The compounds of the invention, formulated in the form of wettable powders (WP) or as emulsion concentrates (EC), were then applied onto the surface of the covering soil as aqueous suspension or emulsion with addition of 0.5% additive at a water application rate of 600 liters per hectare (converted). After the treatment, the pots were placed in a greenhouse and kept under good growth conditions for the test plants. After about 3 weeks, the effect of the preparations was scored visually in comparison with untreated controls as percentages. For example, 100% activity=the plants have died, 0% activity=like control plants. Tables C1 to C8 below show the effects of selected compounds of the general formula (I) according to Table 1 on various harmful plants and an application rate corresponding to 1280 g/ha, which were obtained by the experimental procedure mentioned above.

[8] = system: Setaria viridis (SETVI); assay: Herbicidal pre-emergence action; details: 1280 g/ha; scored visually after about 3 weeks vs untreated controls; 100% = plants have died, 0% = like control plants
Source text: as §2

[9] = system: Poa annua (POAAN); assay: Herbicidal pre-emergence action; details: 1280 g/ha; scored visually after about 3 weeks vs untreated controls; 100% = plants have died, 0% = like control plants
Source text: as §2

[10] = system: Amaranthus retroflexus (AMARE); assay: Herbicidal pre-emergence action; details: 1280 g/ha; scored visually after about 3 weeks vs untreated controls; 100% = plants have died, 0% = like control plants
Source text: as §2

[11] = system: Echinochloa crus-galli (ECHCG); assay: Herbicidal pre-emergence action; details: 1280 g/ha; scored visually after about 3 weeks vs untreated controls; 100% = plants have died, 0% = like control plants
Source text: as §2

[12] = system: Stellaria media (STEME); assay: Herbicidal pre-emergence action; details: 1280 g/ha; scored visually after about 3 weeks vs untreated controls; 100% = plants have died, 0% = like control plants
Source text: as §2

[13] = system: Lolium rigidum (LOLRI); assay: Herbicidal pre-emergence action; details: 1280 g/ha; scored visually after about 3 weeks vs untreated controls; 100% = plants have died, 0% = like control plants
Source text: as §2

[14] = system: Abutilon theophrasti (ABUTH); assay: Herbicidal pre-emergence action; details: 1280 g/ha; scored visually after about 3 weeks vs untreated controls; 100% = plants have died, 0% = like control plants
Source text: as §2

[15] = system: Agrostis tenuis (AGSTE); assay: Herbicidal early post-emergence action; details: 1900 g/ha; scored visually 9 to 12 days after treatment vs untreated controls; 100% = plants have died, 0% = like control plants
Experimental: (§3) Seeds of monocotyledonous or dicotyledonous weed plants were placed in 96-well microtiter plates in quartz sand and grown in a climatized chamber under controlled growth conditions. 5 to 7 days after sowing, the test plants were treated at the cotyledon stage. The compounds according to the invention, formulated in the form of emulsion concentrates (EC), were applied with a water application rate of the equivalent of 2200 liters per hectare. After the test plants had been left to stand in the climatized chamber for 9 to 12 days under optimum growth conditions, the effect of the preparations was scored visually in comparison to untreated controls. For example, 100% activity=the plants have died, 0% activity=like control plants. Tables A1 to A6 below show the effects of selected compounds of the general formula (I) according to Table 1 on various harmful plants and an application rate corresponding to 1900 g/ha, which were obtained by the experimental procedure mentioned above.

[16] = system: Diplotaxis muralis (DIPTE); assay: Herbicidal early post-emergence action; details: 1900 g/ha; scored visually 9 to 12 days after treatment vs untreated controls; 100% = plants have died, 0% = like control plants
Experimental: as §3

[17] = system: Setaria viridis (SETVI); assay: Herbicidal early post-emergence action; details: 1900 g/ha; scored visually 9 to 12 days after treatment vs untreated controls; 100% = plants have died, 0% = like control plants
Experimental: as §3

[18] = system: Veronica persica (VERPE); assay: Herbicidal early post-emergence action; details: 1900 g/ha; scored visually 9 to 12 days after treatment vs untreated controls; 100% = plants have died, 0% = like control plants
Experimental: as §3

[19] = system: Poa annua (POAAN); assay: Herbicidal early post-emergence action; details: 1900 g/ha; scored visually 9 to 12 days after treatment vs untreated controls; 100% = plants have died, 0% = like control plants
Experimental: as §3

[20] = system: Lolium perenne (LOLPE); assay: Herbicidal early post-emergence action; details: 1900 g/ha; scored visually 9 to 12 days after treatment vs untreated controls; 100% = plants have died, 0% = like control plants
Experimental: as §3

`Cc1cc(Oc2ncc(Cl)cn2)c(Sc2ccc(F)cc2)c(C)n1` [Example 1-26, 2,6-Dimethyl-3-(4-fluorophenylthio)-4-(5-chloropyrimidin-2-yloxy)pyridine] was tested. Which “Post-emergence action against Setaria viridis (SETVI)” value [1] did it give?
The value was 90%.

What about the “Post-emergence action against Poa annua (POAAN)” value [2] of the same compound?
The value was 100%.

What about the “Post-emergence action against Amaranthus retroflexus (AMARE)” value (“Post-emergence action … (AMARE)” for short) [3] of the same compound?
The value was 100%.

What about the “Post-emergence action against Echinochloa crus-galli (ECHCG)” value [4] of the same compound?
Its value is 100%.

What about the “Post-emergence action against Stellaria media (STEME)” value (from here on “Post-emergence action … (STEME)”) [5] of the same compound?
The value was 100%.

What about the “Post-emergence action against Abutilon theophrasti (ABUTH)” value [6] of the same compound?
Its value is 100%.

And the “Pre-emergence action against Matricaria inodora (MATIN)” value (“Pre-emergence action … (MATIN)” below) [7]?
Its value is 100%.

And the “Pre-emergence action against Setaria viridis (SETVI)” value [8]?
The value was 100%.

What about the “Pre-emergence action against Poa annua (POAAN)” value (from here on “Pre-emergence action … (POAAN)”) [9] of the same compound?
The value was 100%.

And the “Pre-emergence action against Amaranthus retroflexus (AMARE)” value (shortened to “Pre-emergence action … (AMARE)”) [10]?
The value was 100%.

And the “Pre-emergence action against Echinochloa crus-galli (ECHCG)” value [11]?
The value was 100%.

And the “Pre-emergence action against Stellaria media (STEME)” value (“Pre-emergence action … (STEME)” below) [12]?
Its value is 100%.

What about the “Pre-emergence action against Lolium rigidum (LOLRI)” value [13] of the same compound?
Its value is 100%.

And the “Pre-emergence action against Abutilon theophrasti (ABUTH)” value [14]?
The value was 100%.

Which “Post-emergence action … (AMARE)” value [3] does the source give for `Cc1cc(Oc2ncc(Cl)cn2)c(Sc2ccc(F)c(F)c2)c(C)n1` [Example 1-27] here?
Its value is 100%.

What about the “Post-emergence action against Echinochloa crus-galli (ECHCG)” value [4] of the same compound?
The value was 100%.

And the “Post-emergence action … (STEME)” value [5]?
Its value is 100%.

And the “Post-emergence action against Abutilon theophrasti (ABUTH)” value [6]?
The value was 90%.

What about the “Pre-emergence action … (MATIN)” value [7] of the same compound?
The value was 100%.

What about the “Pre-emergence action against Setaria viridis (SETVI)” value [8] of the same compound?
Its value is 100%.

What about the “Pre-emergence action … (POAAN)” value [9] of the same compound?
Its value is 100%.

And the “Pre-emergence action … (AMARE)” value [10]?
The value was 100%.

And the “Pre-emergence action against Echinochloa crus-galli (ECHCG)” value [11]?
The value was 100%.

What about the “Pre-emergence action … (STEME)” value [12] of the same compound?
The value was 100%.

And the “Pre-emergence action against Lolium rigidum (LOLRI)” value [13]?
Its value is 100%.

What about the “Pre-emergence action against Abutilon theophrasti (ABUTH)” value [14] of the same compound?
Its value is 90%.

For `Cc1cc(Oc2ncc(Cl)cn2)c(Sc2cccc(C(F)(F)F)c2)c(C)n1` [Example 1-28], which “Post-emergence action against Poa annua (POAAN)” value [2] is on record?
Its value is 100%.

What about the “Post-emergence action … (AMARE)” value [3] of the same compound?
Its value is 90%.

And the “Post-emergence action … (STEME)” value [5]?
The value was 100%.

And the “Pre-emergence action … (MATIN)” value [7]?
Its value is 90%.

What about the “Pre-emergence action … (POAAN)” value [9] of the same compound?
The value was 90%.

And the “Pre-emergence action … (AMARE)” value [10]?
Its value is 90%.

What about the “Pre-emergence action … (STEME)” value [12] of the same compound?
The value was 100%.

What does the source list for `Cc1cc(Oc2ncc(Cl)cn2)c(Sc2ccc(C#N)cc2)c(C)n1` [Example 1-30]?
Post-emergence action against Poa annua (POAAN) [2]: 100%; Post-emergence action against Echinochloa crus-galli (ECHCG) [4]: 100%; Post-emergence action against Stellaria media (STEME) [5]: 100%; Pre-emergence action against Matricaria inodora (MATIN) [7]: 90%; Pre-emergence action against Setaria viridis (SETVI) [8]: 90%; Pre-emergence action against Poa annua (POAAN) [9]: 100%; Pre-emergence action against Amaranthus retroflexus (AMARE) [10]: 100%; Pre-emergence action against Echinochloa crus-galli (ECHCG) [11]: 100%; Pre-emergence action against Stellaria media (STEME) [12]: 100%; Pre-emergence action against Lolium rigidum (LOLRI) [13]: 90%; Pre-emergence action against Abutilon theophrasti (ABUTH) [14]: 90%

With `COC(=O)c1cc(Oc2ncc(Cl)cn2)c(Sc2ccc(F)cc2)c(C(=O)OC)n1` [Example 1-50] as the compound, how does the “Early post-emergence action against Agrostis tenuis (AGSTE)” value [15] read?
The value was 80%.

For `Cc1nccc(Oc2ncc(Cl)cn2)c1Sc1ccc(F)cc1` [Example 1-86], which “Early post-emergence action against Diplotaxis muralis (DIPTE)” value [16] is on record?
Its value is 80%.

And the “Early post-emergence action against Setaria viridis (SETVI)” value [17]?
The value was 80%.

What about the “Early post-emergence action against Veronica persica (VERPE)” value [18] of the same compound?
Its value is 80%.

What about the “Early post-emergence action against Poa annua (POAAN)” value [19] of the same compound?
The value was 100%.

And the “Early post-emergence action against Lolium perenne (LOLPE)” value [20]?
Its value is 80%.

What about the “Early post-emergence action against Agrostis tenuis (AGSTE)” value [15] of the same compound?
Its value is 100%.

Which “Pre-emergence action … (MATIN)” value [7] does the source give for `Cc1nccc(Oc2ncc(F)cn2)c1Oc1ncc(F)cn1` [Example 1-91] here?
Its value is 90%.

What about the “Pre-emergence action … (AMARE)” value [10] of the same compound?
The value was 100%.

And the “Pre-emergence action … (STEME)” value [12]?
The value was 90%.

— US20210259246A1, “SUBSTITUTED 4-HETEROARYLOXYPYRIDINES AND SALTS THEREOF AND THEIR USE AS HERBICIDAL AGENTS” (BAYER AKTIENGESELLSCHAFT, priority 2018, published 2021)
